What all share (type): cell-based
The target in assay [1] is T1, Protein cereblon/SWI/SNF-related matrix-associated actin-dependent regulator of chromatin subfamily A member 2 (Homo sapiens, UniProt P51531+Q96SW2). Description: PROTAC activity at CRBN/N-terminal HiBiT-tagged SMARCA2 in human A549 cells assessed as induction of SMARCA2 degradation incubated for 6 hrs by Nano-Glo HiBiT Lytic reagent based luminescence plate reader analysis.

In assay [2] the target is Protein cereblon/B-cell lymphoma 6 protein (Homo sapiens) (UniProt Q96SW2+P41182). The experiment in a line: PROTAC activity at CRBN/N-terminal HiBiT tagged BCL6 in human HT-1080 cells assessed as induction of BCL6 degradation by measuring minimum efficacy incubated for 5 hrs by NANO-GLO HiBiT Lytic reagent based luminescence plate reader analysis.
Assay [3] has as its target T1, Protein cereblon/SWI/SNF-related matrix-associated actin-dependent regulator of chromatin subfamily A member 2. The experiment in a line: PROTAC activity at CRBN/N-terminal HiBiT-tagged SMARCA2 in human A549 cells assessed as induction of SMARCA2 degradation by measuring maximal efficacy incubated for 6 hrs by Nano-Glo HiBiT Lytic reagent based luminescence plate reader analysis relative to control.

Assay [4] deals with Protein cereblon/B-cell lymphoma 6 protein (Homo sapiens, UniProt P41182+Q96SW2). The experiment in a line: PROTAC activity at CRBN/N-terminal HiBiT tagged BCL6 in human HT-1080 cells assessed as induction of BCL6 degradation incubated for 5 hrs by NANO-GLO HiBiT Lytic reagent based luminescence plate reader analysis.

Structures are written as SMILES. pEC50: −log10 of the molar value. Where only a bound is given, the exact number is not on record here.

T1 sequence (P51531 whole entry): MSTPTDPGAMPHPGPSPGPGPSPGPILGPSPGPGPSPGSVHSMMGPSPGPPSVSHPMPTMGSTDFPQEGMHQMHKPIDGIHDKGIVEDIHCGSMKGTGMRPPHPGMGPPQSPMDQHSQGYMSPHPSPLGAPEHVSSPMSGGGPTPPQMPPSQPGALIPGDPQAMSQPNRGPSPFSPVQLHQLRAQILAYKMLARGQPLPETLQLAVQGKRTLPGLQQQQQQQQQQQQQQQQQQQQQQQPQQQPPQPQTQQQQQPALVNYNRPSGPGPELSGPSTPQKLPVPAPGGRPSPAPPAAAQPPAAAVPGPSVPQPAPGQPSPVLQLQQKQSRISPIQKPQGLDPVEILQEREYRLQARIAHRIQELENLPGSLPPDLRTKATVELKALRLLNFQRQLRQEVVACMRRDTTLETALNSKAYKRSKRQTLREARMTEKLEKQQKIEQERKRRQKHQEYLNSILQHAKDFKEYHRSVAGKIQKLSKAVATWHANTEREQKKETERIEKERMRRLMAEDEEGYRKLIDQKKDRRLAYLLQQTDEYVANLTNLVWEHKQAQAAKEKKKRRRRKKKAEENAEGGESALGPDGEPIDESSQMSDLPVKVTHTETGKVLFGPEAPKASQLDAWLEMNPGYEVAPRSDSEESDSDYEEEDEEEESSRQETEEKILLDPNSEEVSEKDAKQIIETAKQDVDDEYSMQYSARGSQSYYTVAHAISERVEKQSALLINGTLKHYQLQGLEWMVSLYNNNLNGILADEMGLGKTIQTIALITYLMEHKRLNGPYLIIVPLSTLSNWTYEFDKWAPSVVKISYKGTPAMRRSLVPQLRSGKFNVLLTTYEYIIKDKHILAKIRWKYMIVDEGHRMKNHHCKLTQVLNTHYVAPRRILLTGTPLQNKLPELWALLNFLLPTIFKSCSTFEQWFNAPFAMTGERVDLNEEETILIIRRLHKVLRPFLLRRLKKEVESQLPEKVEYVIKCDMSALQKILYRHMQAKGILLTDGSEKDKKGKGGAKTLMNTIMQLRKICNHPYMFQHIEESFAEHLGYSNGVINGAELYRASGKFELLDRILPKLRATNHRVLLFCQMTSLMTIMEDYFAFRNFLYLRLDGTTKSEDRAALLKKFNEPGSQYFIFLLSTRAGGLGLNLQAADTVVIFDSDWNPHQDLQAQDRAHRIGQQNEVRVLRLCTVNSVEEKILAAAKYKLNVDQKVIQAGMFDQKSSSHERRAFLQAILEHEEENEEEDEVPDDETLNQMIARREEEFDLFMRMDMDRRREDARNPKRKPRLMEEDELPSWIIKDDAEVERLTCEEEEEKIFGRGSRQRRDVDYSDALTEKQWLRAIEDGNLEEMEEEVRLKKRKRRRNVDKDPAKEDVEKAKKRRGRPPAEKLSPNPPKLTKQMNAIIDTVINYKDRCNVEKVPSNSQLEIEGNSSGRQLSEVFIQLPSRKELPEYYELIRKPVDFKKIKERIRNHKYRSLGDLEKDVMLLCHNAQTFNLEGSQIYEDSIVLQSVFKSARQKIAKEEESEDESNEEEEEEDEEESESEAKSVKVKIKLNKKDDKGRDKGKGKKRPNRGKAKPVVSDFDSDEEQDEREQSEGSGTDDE
T1 sequence (Q96SW2 whole entry): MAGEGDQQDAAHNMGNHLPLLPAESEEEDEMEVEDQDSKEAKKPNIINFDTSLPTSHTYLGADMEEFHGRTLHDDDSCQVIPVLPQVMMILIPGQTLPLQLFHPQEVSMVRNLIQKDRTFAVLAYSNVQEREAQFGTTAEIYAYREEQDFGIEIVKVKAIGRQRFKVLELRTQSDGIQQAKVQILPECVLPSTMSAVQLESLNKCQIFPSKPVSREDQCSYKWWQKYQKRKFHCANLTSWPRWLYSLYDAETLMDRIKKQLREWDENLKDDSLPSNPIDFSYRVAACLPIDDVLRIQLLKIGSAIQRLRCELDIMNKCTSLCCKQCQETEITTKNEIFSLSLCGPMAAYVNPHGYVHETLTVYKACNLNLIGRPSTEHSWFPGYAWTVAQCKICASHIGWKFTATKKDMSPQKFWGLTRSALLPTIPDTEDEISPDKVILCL
Protein cereblon/B-cell lymphoma 6 protein (Homo sapiens), sequence (Q96SW2 whole entry, looked up, other chains not shown): as the sequence (Q96SW2 whole entry) above
Protein cereblon/B-cell lymphoma 6 protein, sequence (Q96SW2 whole entry, looked up, other chains not shown): as the sequence (Q96SW2 whole entry) above

On to `CN(C(=O)N1CCC(Oc2cccc(N3[C@@H]4COC[C@H]3CC(c3cc(-c5ccccc5O)nnc3N)C4)c2)CC1)C1CCN(c2cccc3c2CCN3[C@@H]2CCC(=O)NC2=O)CC1` (stereo not given in full), for which the 50% degradation concentration (DC50) in assay [1] was 9.47 nM.
As for `Cn1c(=O)c2c(c3cc(Nc4nc(N5CCN(CC6CCN(c7cccc8c7C(=O)N(C7CCC(=O)NC7=O)C8=O)CC6)CC5)ncc4Cl)ccc31)N[C@@H](C1CC1)C(F)(F)CO2` (stereo not given in full), in assay [2], the Emin is below 30%.
As to `Nc1nnc(-c2ccccc2O)cc1C1C[C@H]2COC[C@@H](C1)N2c1cccc(OC2CCN(C(=O)CC3(O)CCN(c4cccc5c4CCN5C4CCC(=O)NC4=O)CC3)CC2)c1` (stereo not given in full), the DC50 in assay [1] was 5.8 nM. The maximum response (Emax) in assay [3] was determined as 22.9%.
Take `C[C@H](C1CCN(c2ncc(Cl)c(Nc3ccc4c(c3)c3c(c(=O)n4C)OCC(F)(F)[C@H](C4CC4)N3)n2)CC1)C1CCN(c2cccc3c(C4CCC(=O)NC4=O)nn(C)c23)CC1` (stereo not given in full): the pEC50 in assay [4] is at least 7.60. Moreover, the Emin in assay [2] was below 30%.
For `CN(c1cccc(N2CCC(O)(CC(=O)N3CCC(Oc4cccc(N5[C@@H]6COC[C@H]5CC(c5cc(-c7ccccc7O)nnc5N)C6)c4)CC3)CC2)c1)C1CCC(=O)NC1=O` (stereo not given in full), in assay [1], the 50% degradation concentration (DC50) came out at 13.1 nM.
For `Nc1nnc(-c2ccccc2O)cc1C1C[C@H]2COC[C@@H](C1)N2c1cccc(OC2CCN(C(=O)CCC3CN(c4cccc5c4CCN5[C@@H]4CCC(=O)NC4=O)C3)CC2)c1` (stereo not given in full), in assay [1], the DC50 is 13 nM.
In the case of `C[C@H]1CN(c2ncc(Cl)c(Nc3ccc4c(c3)c3c(c(=O)n4C)OCC(F)(F)[C@H](C4CC4)N3)n2)CCN1CC1CCN(c2cccc3c(C4CCC(=O)NC4=O)nn(C)c23)CC1` (stereo not given in full), in assay [2], the Emin was below 30%.
Consider `Cn1nc(C2CCC(=O)NC2=O)c2cccc(N3CCN(CC4CCN(c5ncc(Cl)c(Nc6ccc7c(c6)c6c(c(=O)n7C)OCC(F)(F)[C@H](C7CC7)N6)n5)CC4)CC3)c21` (stereo not given in full), for which the Emin in assay [2] was below 30%.

Source of the values: ChEMBL document CHEMBL5634188, “Expanding TPD Horizons: Innovative Strategies Targeting BCL6 and SMARCA2” (ACS Med Chem Lett, 2024).
